Data as given in patent publication US7482425B2, “Compositions for lipid matrix-assisted chemical ligation” (Amylin Pharmaceuticals, Inc., priority 2002, dated 2009).
Where no end group is shown, it is not given here.

Settings: pH 7.5

TGRPEWIWLALGTALMGLGTLYFLVKGMGVSDPDAKK [Peptide 1, TGRPEWIWLALGTALMGLGTLYFLVKGMGVSDPDAKK]
solubility: does not dissolve
